This is an account of results in patent US9163008B2, “Pyrimidines as sodium channel blockers” (Purdue Pharma, L.P., priority 2011, dated 2015).

Usually IC50 stands for the concentration needed to halve the response being measured.

For one test, the target named is human Nav1.7 (Homo sapiens (Human), UniProt Q15858). As to the kind of experiment: FLIPR sodium dye assay (CoroNa Green) with KCl and test article pre-incubation. Format: cell-based. Particulars: read-out: Nav1.7 Activity FLIPR assay IC50.
In a further test the target is hNav1.7 (Homo sapiens (Human), UniProt Q15858). The experiment in a line: Electrophysiology (EP) whole-cell patch clamp assay. In kind it is cell-based. As to conditions: for Ki: read-out: Nav1.7 Activity EP assay Ki; for Kd: resting block dissociation constant, read-out: Nav1.7 Activity EP assay Kr. As to the method: The hNav1.7 expressing HEK-293 cells were plated on 35 mm culture dishes pre-coated with poly-D-lysine in standard DMEM culture media (Mediatech, Inc., Herndon, Va.) and incubated in a 5% CO2 incubator at 37° C. Cultured cells were used approximately 12-48 h after plating.
On the day of experimentation, the 35 mm dish was placed on the stage of an inverted microscope equipped with a perfusion system that continuously perfuses the culture dish with fresh recording media. A gravity driven superfusion system was used to apply test solutions directly to the cell under evaluation. This system consists of an array of glass pipette glass connected to a motorized horizontal translator. The outlet of the shooter was positioned approximately 100 μm from the cell of interest.
Gigaseals were formed and the whole-cell configuration was established in voltage clamp mode, and membrane currents generated by hNav1.7 were recorded in gap-free mode. […] Signals were sampled at 50 kHz and low pass filtered at 3 kHz.
To determine a membrane potential at which the majority of channels are in the resting state, a standard steady-state inactivation (SSIN) protocol was run using 100 ms prepulses×10 mV depolarizing steps. The holding potential for testing resting block (Vh1) was 20 mV more hyperpolarized than the first potential where inactivation is observed with the inactivation protocol.
From this holding potential a standard I-V protocol was run to determine the potential at which the maximal current (Imax) was elicited. This potential was the test potential (Vt).
The fractional response was calculated as follows: FR=I(after drug)/I(control),
where I is the peak current amplitude and was used for estimating resting block dissociation constant, Kr: Kr=[drug]*{FR/(1−FR)},
To assess the block of inactivated channels the holding potential was depolarized such that 20-50% of the current amplitude was reduced when pulsed to the same Vt as above. The magnitude of this depolarization depends upon the initial current amplitude and the rate of current loss due to slow inactivation. This was the second holding potential (Vh2). The current reduction was recorded to determine the fraction of available channels at this potential (h). h=I@Vh2/Imax.
At this membrane voltage a proportion of channels are in the inactivated state, and thus inhibition by a blocker includes interaction with both resting and inactivated channels.
To determine the potency of the test compound on inactivated channels, a series of currents were elicited by 10 ms voltage steps from Vh2 to Vt every 10-15 seconds. After establishing a stable baseline, the low concentration of the compound was applied. Multiple cumulative concentrations may have to be applied to identify a concentration that will block between 40-60% of the current. Washout was attempted to re-establish baseline. Fractional responses were measured with respect to a projected baseline to determine Kapp. Kapp=[drug]*{FR/(1−FR)},
This Kapp value, along with the calculated Kr and h values, were used to calculate the affinity of the compound for the inactivated channels (Ki) using the following equation: Ki=(1−h)/((1/Kapp)−(h/Kr)).
Vehicle solution used to establish base line was also contacting 0.3% DMSO.
Data was analyzed off-line using Clampfit software (pClamp, v. 8; Axon Instruments) and graphed using GraphPad Prizm (v. 4.0 or higher) software.
In general terms: In patch-clamp work, channel activity is measured electrically.

The subject of test [1] is SNL-induced mechanical hyperalgesia. The experiment in a line: SNL-induced mechanical hyperalgesia model (paw pressure test). Particulars: rats, dosed orally at 100 mg/kg, vehicle 0.5% methyl cellulose, one hour before testing. Format: in vivo, rat. As to the method: In the Chung model, the spinal nerve ligation (SNL) model of neuropathic pain is used to produce mechanical hyperalgesia, thermal hyperalgesia, and tactile allodynia in rats. Surgery is performed under isoflurane/O2 inhalation anesthesia. Following induction of anesthesia a 3 cm incision is made and the left paraspinal muscles are separated from the spinous process at the L4-S2 levels. The L6 transverse process is carefully removed with a pair of small rongeurs to identify visually the L4-L6 spinal nerves. The left L5 (or L5 and L6) spinal nerve(s) is (are) isolated and tightly ligated with silk thread. […] The animals can also be assessed for response to noxious thermal stimuli or for tactile allodynia, as described below. […] Sensitivity to noxious mechanical stimuli was measured in animals using the paw pressure test to assess mechanical hyperalgesia. In rats, hind paw withdrawal thresholds (“PWT”), measured in grams, in response to a noxious mechanical stimulus were determined using an analgesymeter (Model 7200, commercially available from Ugo Basile of Italy), as described in Stein (Biochemistry & Behavior 31: 451-455 (1988)). […] PWT was determined once for each rat at each time point. PWT can be measured only in the injured paw, or in both the injured and non-injured paw. […]

The mark [2] stands for this setting: affinity for inactivated channels, hNav1.7 HEK-293.
Setting [3] is: recombinant human Nav1.7 in HEK293, veratridine and scorpion venom agonists.

Where two headings read alike, the source gives them in different places.

hNav1.7, sequence (Q15858 other isoform, or with tags, fused parts or gaps): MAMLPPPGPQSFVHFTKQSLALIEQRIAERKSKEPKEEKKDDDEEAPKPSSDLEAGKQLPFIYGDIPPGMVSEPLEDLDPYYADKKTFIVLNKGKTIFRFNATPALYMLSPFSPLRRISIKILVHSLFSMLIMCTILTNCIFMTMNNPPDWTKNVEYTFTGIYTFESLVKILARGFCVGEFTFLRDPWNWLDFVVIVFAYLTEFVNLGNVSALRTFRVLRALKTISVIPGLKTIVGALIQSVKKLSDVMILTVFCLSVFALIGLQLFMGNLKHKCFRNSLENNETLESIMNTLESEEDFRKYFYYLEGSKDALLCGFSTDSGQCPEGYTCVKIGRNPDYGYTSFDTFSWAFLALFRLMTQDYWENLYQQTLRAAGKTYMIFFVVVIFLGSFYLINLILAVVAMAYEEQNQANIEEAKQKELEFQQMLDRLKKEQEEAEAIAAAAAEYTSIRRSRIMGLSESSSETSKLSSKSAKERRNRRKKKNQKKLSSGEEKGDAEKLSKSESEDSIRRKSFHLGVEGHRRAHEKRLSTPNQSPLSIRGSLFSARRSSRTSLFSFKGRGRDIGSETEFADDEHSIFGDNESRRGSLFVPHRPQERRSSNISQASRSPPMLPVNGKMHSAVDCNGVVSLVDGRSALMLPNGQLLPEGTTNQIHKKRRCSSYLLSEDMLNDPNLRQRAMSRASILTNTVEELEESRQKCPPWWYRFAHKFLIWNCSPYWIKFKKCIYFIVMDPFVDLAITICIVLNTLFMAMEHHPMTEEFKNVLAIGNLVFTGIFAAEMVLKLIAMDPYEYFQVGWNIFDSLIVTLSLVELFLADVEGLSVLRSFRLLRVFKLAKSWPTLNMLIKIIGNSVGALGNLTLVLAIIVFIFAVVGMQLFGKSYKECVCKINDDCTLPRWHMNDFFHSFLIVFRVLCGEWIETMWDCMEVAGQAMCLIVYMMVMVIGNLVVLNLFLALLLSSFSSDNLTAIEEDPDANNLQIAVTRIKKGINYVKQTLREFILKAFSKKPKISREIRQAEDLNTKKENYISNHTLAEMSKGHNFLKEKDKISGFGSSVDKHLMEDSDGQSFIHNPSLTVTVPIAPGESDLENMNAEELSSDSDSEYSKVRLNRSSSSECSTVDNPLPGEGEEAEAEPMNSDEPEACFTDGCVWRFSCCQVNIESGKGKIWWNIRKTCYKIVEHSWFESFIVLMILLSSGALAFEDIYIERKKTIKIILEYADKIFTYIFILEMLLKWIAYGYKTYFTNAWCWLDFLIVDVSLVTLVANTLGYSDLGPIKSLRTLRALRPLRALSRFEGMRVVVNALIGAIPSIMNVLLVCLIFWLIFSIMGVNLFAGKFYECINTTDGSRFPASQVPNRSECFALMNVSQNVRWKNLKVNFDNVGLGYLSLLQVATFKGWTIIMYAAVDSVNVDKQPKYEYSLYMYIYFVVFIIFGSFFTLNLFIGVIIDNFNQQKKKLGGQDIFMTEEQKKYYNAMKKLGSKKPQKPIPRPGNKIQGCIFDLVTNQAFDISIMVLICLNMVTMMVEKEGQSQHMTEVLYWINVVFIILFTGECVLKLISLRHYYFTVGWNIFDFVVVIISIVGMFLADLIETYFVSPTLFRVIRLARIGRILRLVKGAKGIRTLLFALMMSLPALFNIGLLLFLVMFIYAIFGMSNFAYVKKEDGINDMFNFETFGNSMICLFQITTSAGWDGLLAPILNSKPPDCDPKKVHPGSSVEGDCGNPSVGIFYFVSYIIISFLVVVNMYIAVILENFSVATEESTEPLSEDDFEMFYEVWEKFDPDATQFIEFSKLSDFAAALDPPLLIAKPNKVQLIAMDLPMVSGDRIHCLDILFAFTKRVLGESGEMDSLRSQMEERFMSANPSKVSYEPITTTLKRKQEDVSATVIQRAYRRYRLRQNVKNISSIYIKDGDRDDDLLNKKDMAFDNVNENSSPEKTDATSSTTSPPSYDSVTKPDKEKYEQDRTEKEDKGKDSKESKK
human Nav1.7, sequence (Q15858 other isoform, or with tags, fused parts or gaps): as above

Take `C[C@H](Nc1cc(C(N)=O)nc(-c2ccc(Oc3ccc(F)cc3)cc2)n1)C(N)=O` [Cpd No. 1, (S)-6-((1-amino-1-oxopropan-2-yl)amino)-2-(4-(4-fluorophenoxy)phenyl)pyrimidine-4-carboxamide]: the IC50 on human Nav1.7 stood at 420 nM. Moreover, the Ki at hNav1.7 came out at 57 nM. Also, on hNav1.7 (hNav1.7 HEK-293), the Kd stood at 4220 nM.
With `NC(=O)c1cc(N2CCC[C@H]2C(N)=O)nc(-c2ccc(Oc3ccc(F)cc3)cc2)n1` [Cpd No. 5, (S)-6-(2-carbamoylpyrrolidin-1-yl)-2-(4-(4-fluorophenoxy)phenyl)pyrimidine-4-carboxamide], at human Nav1.7, the IC50 is 260 nM. Besides, the Ki on hNav1.7 (setting [2]) stood at 78 nM. The Kd on hNav1.7 (hNav1.7 HEK-293) is 7950 nM.
For `C[C@H](Nc1cc(C(N)=O)nc(-c2ccc(Oc3ccc(C(F)(F)F)cn3)cc2)n1)C(N)=O` [Cpd No. 13, (S)-6-((1-amino-1-oxopropan-2-yl)amino)-2-(4-((5-(trifluoromethyl)pyridin-2-yl)oxy)phenyl)pyrimidine-4-carboxamide], at human Nav1.7, the IC50 came to 990 nM. Further, the Ki on hNav1.7 (setting [2]) is 420 nM. In addition, on hNav1.7 (hNav1.7 HEK-293), the Kd came to 169000 nM.
For the molecule `C[C@@H](Nc1cc(C(N)=O)nc(-c2ccc(Oc3ccc(F)cc3)cc2)n1)C(N)=O` [Cpd No. 21, (R)-6-((1-amino-1-oxopropan-2-yl)amino)-2-(4-(4-fluorophenoxy)phenyl)pyrimidine-4-carboxamide], the IC50 at human Nav1.7 was 600 nM. The Ki on hNav1.7 came out at 230 nM. Besides, the Kd on hNav1.7 (hNav1.7 HEK-293) worked out at 7250 nM.
For `C[C@H](Nc1cc(C(=O)O)nc(-c2ccc(Oc3ccc(F)cc3)cc2)n1)C(N)=O` [Cpd No. 35, (S)-6-((1-amino-1-oxopropan-2-yl)amino)-2-(4-(4-fluorophenoxy)phenyl)pyrimidine-4-carboxylic acid], on human Nav1.7 (setting [3]), the IC50 was above 20000 nM. The Ki at hNav1.7 (setting [2]) was 20500 nM. In addition, on hNav1.7 (hNav1.7 HEK-293), the Kd is 102000 nM.
In the same order, the values of `C[C@H](Nc1cc(C(=O)O)nc(-c2ccc(Oc3ccc(F)cc3)cc2)n1)C(=O)O` [Cpd No. 40, (S)-6-((1-carboxyethyl)amino)-2-(4-(4-fluorophenoxy)phenyl)pyrimidine-4-carboxylic acid] are above 20000 nM, 41000 nM and 110000 nM.
For the molecule `C[C@H](Nc1cc(C(N)=O)nc(-c2ccc(Oc3ccc(Cl)cn3)cc2)n1)C(N)=O` [Cpd No. 63, (S)-6-((1-amino-1-oxopropan-2-yl)amino)-2-(4-((5-chloropyridine-2-yl)oxy)phenyl)pyrimidine-4-carboxamide], the IC50 on human Nav1.7 stood at 790 nM. Also, the Ki on hNav1.7 (setting [2]) was determined as 600 nM. The Kd at hNav1.7 (hNav1.7 HEK-293) is 28000 nM.
In the same order, the values of `C[C@H](Nc1cc(C(N)=O)nc(-c2ccc(Oc3ccc(Cl)cc3F)cc2)n1)C(N)=O` [Cpd No. 64, (S)-6-((1-amino-1-oxopropan-2-yl)amino)-2-(4-(4-chloro-2-fluorophenoxy)phenyl)pyrimidine-4-carboxamide] are 180 nM, 16 nM and 730 nM.
Turning to `C[C@H](Nc1cc(C(N)=O)nc(-c2ccc(Oc3ccc(OC(F)(F)F)cc3)cc2)n1)C(N)=O` [Cpd No. 84, (S)-6-((1-amino-1-oxopropan-2-yl)amino)-2-(4-(4-(trifluoromethoxy)phenoxy)phenyl)pyrimidine-4-carboxamide], the “SNL-induced mechanical hyperalgesia (paw withdrawal threshold)” value in test [1] is listed as “reduced SNL-induced mechanical hyperalgesia”.
As for `NC(=O)c1cc(N[C@H]2CCNC2=O)nc(-c2ccc(Oc3ccc(C(F)(F)F)cn3)cc2)n1` [compound 99, (S)-6-((2-oxopyrrolidin-3-yl)amino)-2-(4-((5-(trifluoromethyl)pyridin-2-yl)oxy)phenyl)pyrimidine-4-carboxamide], the IC50 on human Nav1.7 came out at 570 nM. In addition, the Ki on hNav1.7 (setting [2]) is 83 nM. Further, the Kd at hNav1.7 (hNav1.7 HEK-293) came to 4650 nM. In addition, the “SNL-induced mechanical hyperalgesia (paw withdrawal threshold)” value in test [1] is “reduced SNL-induced mechanical hyperalgesia”.
